Assay results reported in US20090306133A1, “New Acetyl Coenzyme A Carboxylase (ACC) Inhibitors And Uses In Treatments Of Obesity And Diabetes Mellitus - 087” (ASTRAZENECA AB, priority 2007, published 2009).

Columns and labels:
[1] = biological target: Human recombinant Acetyl-CoA Carboxylase 2 (ACC2) (Homo sapiens, UniProt O00763); assay: Assay Y: ACC2 inhibition, inorganic phosphate (Malachite Green); type: biochemical; settings: Assay Y: room temperature, 3 hr, 15 min preincubation
Procedure, shortened: (§1)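 Enzyme preincubated with compound 15 min before substrate addition; reaction run 3 h, then phosphate detected with Malachite Green at 670 nm after 10 min at room temperature. Triplicate 10-point titrations; IC50 by non-linear four-parameter curve fitting.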

[2] = biological target: Human recombinant Acetyl-CoA Carboxylase 1 (ACC1) (Homo sapiens, UniProt Q13085); assay: Assay Y: ACC1 inhibition, inorganic phosphate (Malachite Green); type: biochemical; settings: Assay Y: room temperature, 3 hr, 15 min preincubation
Procedure, shortened: as §1

Human recombinant Acetyl-CoA Carboxylase 2 (ACC2), sequence (O00763 whole entry): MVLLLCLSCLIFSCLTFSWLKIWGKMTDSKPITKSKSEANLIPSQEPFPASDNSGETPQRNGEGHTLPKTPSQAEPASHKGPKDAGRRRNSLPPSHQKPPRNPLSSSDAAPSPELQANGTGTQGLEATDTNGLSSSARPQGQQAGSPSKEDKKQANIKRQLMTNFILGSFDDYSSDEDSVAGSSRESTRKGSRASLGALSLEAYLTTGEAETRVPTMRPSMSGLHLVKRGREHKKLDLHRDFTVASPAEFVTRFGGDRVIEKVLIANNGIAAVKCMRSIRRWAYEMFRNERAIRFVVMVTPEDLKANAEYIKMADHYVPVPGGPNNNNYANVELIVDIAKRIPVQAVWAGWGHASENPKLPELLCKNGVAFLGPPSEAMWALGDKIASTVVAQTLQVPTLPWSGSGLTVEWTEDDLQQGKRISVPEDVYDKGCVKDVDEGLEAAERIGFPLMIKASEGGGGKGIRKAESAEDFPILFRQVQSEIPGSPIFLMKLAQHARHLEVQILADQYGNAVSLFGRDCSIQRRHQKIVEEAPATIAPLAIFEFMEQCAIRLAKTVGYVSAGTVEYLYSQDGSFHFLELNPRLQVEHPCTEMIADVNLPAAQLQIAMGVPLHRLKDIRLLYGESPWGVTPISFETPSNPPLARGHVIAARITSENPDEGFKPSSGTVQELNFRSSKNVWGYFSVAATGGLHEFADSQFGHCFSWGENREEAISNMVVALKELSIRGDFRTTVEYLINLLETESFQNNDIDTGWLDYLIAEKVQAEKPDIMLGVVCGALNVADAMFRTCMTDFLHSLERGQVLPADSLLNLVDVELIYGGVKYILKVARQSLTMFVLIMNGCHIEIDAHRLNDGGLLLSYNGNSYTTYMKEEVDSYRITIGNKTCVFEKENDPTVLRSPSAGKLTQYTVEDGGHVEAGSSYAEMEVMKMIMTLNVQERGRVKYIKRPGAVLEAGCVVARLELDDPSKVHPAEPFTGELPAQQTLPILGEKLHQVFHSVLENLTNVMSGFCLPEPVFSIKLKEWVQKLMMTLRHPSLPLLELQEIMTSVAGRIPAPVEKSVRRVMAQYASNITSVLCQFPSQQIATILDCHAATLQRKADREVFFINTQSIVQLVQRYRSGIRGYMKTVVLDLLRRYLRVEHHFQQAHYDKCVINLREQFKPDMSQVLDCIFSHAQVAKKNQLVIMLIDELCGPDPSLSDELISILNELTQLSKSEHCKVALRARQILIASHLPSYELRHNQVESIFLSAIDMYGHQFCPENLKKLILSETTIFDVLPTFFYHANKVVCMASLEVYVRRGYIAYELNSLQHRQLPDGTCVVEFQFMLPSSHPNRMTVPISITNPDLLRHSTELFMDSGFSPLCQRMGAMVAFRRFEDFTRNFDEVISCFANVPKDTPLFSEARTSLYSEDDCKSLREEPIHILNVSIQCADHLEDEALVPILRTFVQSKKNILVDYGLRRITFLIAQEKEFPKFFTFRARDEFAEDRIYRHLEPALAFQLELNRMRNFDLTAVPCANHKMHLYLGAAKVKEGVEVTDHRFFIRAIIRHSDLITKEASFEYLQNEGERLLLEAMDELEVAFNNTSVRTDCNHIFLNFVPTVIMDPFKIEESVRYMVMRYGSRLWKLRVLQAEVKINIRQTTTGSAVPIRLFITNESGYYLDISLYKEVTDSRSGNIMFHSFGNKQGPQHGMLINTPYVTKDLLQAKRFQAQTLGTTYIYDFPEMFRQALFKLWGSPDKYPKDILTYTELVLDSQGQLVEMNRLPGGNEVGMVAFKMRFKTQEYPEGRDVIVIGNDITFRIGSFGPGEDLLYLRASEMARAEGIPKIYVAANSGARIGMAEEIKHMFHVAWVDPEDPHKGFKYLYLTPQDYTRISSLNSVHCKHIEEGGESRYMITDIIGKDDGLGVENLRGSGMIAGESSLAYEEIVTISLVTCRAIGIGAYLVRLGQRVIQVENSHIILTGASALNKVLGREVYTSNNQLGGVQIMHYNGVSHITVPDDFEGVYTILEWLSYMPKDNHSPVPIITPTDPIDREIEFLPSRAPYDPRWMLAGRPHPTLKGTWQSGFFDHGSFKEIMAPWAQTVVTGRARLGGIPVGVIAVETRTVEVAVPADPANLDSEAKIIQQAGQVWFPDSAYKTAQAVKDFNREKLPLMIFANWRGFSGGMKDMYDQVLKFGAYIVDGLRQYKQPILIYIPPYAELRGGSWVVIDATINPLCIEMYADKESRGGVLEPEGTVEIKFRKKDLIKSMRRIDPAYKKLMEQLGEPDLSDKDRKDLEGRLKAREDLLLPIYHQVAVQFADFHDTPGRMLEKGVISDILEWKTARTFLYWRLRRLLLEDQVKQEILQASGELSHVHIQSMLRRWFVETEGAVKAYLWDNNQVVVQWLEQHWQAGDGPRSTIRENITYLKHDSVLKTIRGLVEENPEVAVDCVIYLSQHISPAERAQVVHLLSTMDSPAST

Row | IC50 [1] [nM] | IC50 [2] [nM] | Structure (SMILES)
1 | 2010 | > 20000 | CCN(C[C@H]1CC[C@H](CNC(=O)OC(C)(C)C)CC1)S(=O)(=O)c1ccc(-c2csc(C)n2)s1 [Example 90, tert-Butyl ({trans-4-[(ethyl {[5-(2-methyl-1,3-thiazol-4-yl)-2-thienyl]sulfonyl}amino)-methyl]cyclohexyl}methyl)carbamate]
2 | 3620 | > 20000 | CC(C)(C)OC(=O)NC[C@H]1CC[C@H](CNS(=O)(=O)c2cccc3cnccc23)CC1 [Example 76, tert-Butyl [(trans-4-{[(isoquinolin-5-ylsulfonyl)amino]methyl}cyclohexyl)-methyl]carbamate]
3 | 50 | 260 | CC(C)(C)OC(=O)NC[C@H]1CC[C@H](CNC(=O)c2cc(-c3ccc(CN)cc3)nc3ccccc23)CC1 [Example 92, tert-Butyl [(trans-4-{[({2-[4-(aminomethyl)phenyl]quinolin-4-yl}carbonyl)amino]-methyl}cyclohexyl)methyl]carbamate acetate]
4 | 1390 | 6790 | CC(C)(C)OC(=O)NC[C@H]1CC[C@H](CNS(=O)(=O)c2cccc3cccnc23)CC1 [Example 66, tert-Butyl [(trans-4-{[(quinolin-8-ylsulfonyl)amino]methyl}cyclohexyl)methyl]-carbamate]
5 | 1800 | 4850 | CCOC(=O)NC[C@H]1CC[C@H](CNC(=O)c2cc(-c3ccc(C(=O)N(C)C)cc3)nc3ccccc23)CC1 [Example 18, Ethyl [(trans-4-{[({2-[4-(dimethylcarbamoyl)phenyl]quinolin-4-yl}carbonyl)amino]-methyl}cyclohexyl)methyl]carbamate]
6 | 7660 | 8230 | CC(C)(C)OC(=O)NC[C@H]1CC[C@H](CNC(=O)c2ccnc(-c3ccc(CN)cc3)c2)CC1 [Example 52, tert-Butyl ({trans-4-[({2-[4-(aminomethyl)phenyl]isonicotinoyl}amino)methyl]cyclo-hexyl}methyl)carbamate]
7 | 6140 | 18300 | CC(C)(C)NC(=O)NC[C@H]1CC[C@H](CNC(=O)c2cc(-c3ccncc3)nc3ccccc23)CC1 [Example 97, N-[(trans-4-{[(tert-Butylcarbamoyl)amino]methyl}cyclohexyl)methyl]-2-pyridin-4-ylquinoline-4-carboxamide]
8 | 2960 | > 20000 | Cc1[nH]c(=O)ccc1-c1cc(C(=O)NC[C@H]2CC[C@H](CNC(=O)OC(C)(C)C)CC2)c2ccccc2n1 [Example 2, tert-Butyl ({trans-4-[({[2-(2-methyl-6-oxo-1,6-dihydropyridin-3-yl)quinolin-4-yl]carbonyl}amino)methyl]cyclohexyl}methyl)carbamate]
9 | 260 | 1220 | CC(C)(C)OC(=O)NC[C@H]1CC[C@H](CNC(=O)c2cc(-c3ccc(C(N)=O)nc3)nc3ccccc23)CC1 [Example 5, tert-Butyl ({trans-4-[({[2-(6-carbamoylpyridin-3-yl)quinolin-4-yl]carbonyl}amino)-methyl]cyclohexyl}methyl)carbamate]
10 | 620 | 3070 | CNS(=O)(=O)c1ccc(-c2cc(C(=O)NC[C@H]3CC[C@H](CNC(=O)OC4CCOCC4)CC3)c3ccccc3n2)cc1 [Example 136, Tetrahydro-2H-pyran-4-yl{[trans-4-({[(2-{4-[(methylamino)sulfonyl]phenyl}quinolin-4-yl)carbonyl]amino}methyl)cyclohexyl]methyl}-carbamate]
11 | 1260 | > 20000 | CC(=O)N1CCN(CCCOc2cc(C(=O)NC[C@H]3CC[C@H](CNC(=O)OC(C)(C)C)CC3)c3ccccc3n2)CC1 [Example 183, tert-Butyl[(trans-4-{[({2-[3-(4-acetylpiperazin-1-yl)propoxy]quinolin-4-yl}carbonyl)amino]-methyl}cyclohexyl)-methyl]carbamate]
12 | 160 | 450 | CC(=O)c1ccc(-c2cc(C(=O)NC[C@H]3CC[C@H](CNC(=O)OC(C)(C)C)CC3)c3ccccc3n2)s1 [Example 13, tert-Butyl ({trans-4-[({[2-(5-acetyl-2-thienyl)quinolin-4-yl]carbonyl}amino)methyl]-cyclohexyl}methyl)carbamate]
13 | 650 | 1520 | CC(C)(C)OC(=O)NC[C@H]1CC[C@H](CNC(=O)c2cc(-c3cnccn3)nc3ccccc23)CC1 [Example 3, tert-Butyl {[trans-4-({[(2-pyrazin-2-ylquinolin-4-yl)carbonyl]amino}methyl)cyclohexyl]methyl}carbamate]
14 | 30 | 180 | CN(C)CCNc1ccc(-c2cc(C(=O)NC[C@H]3CC[C@H](CNC(=O)OC(C)(C)C)CC3)c3ccccc3n2)cn1 [Example 146, tert-Butyl({trans-4-[({[2-(6-{[2-(dimethylamino)ethyl]-amino}pyridin-3-yl)quinolin-4-yl]carbonyl}amino)-methyl]cyclohexyl}-methyl)carbamate]
15 | 6820 | 5300 | CC(C)(C)OC(=O)NC[C@H]1CC[C@H](CNC(=O)c2ccnc(-c3ccc(C(N)=O)cc3)c2)CC1 [Example 50, tert-Butyl {[trans-4-({[2-(4-carbamoylphenyl)isonicotinoyl]amino}methyl)cyclohexyl]-methyl}carbamate]
16 | 3880 | > 20000 | CC(C)(C)OC(=O)NC[C@H]1CC[C@H](CNS(=O)(=O)c2ccc(Cl)c(Cl)c2)CC1 [Example 65, tert-Butyl {[trans-4-({[(3,4-dichlorophenyl)sulfonyl]amino}methyl)cyclohexyl]methyl}-carbamate]

Further lines, the compound ahead of its results:

Row | Structure (SMILES) | IC50 [1] [nM] | IC50 [2] [nM]
17 | CN(C)c1ccc(-c2cc(C(=O)NC[C@H]3CC[C@H](CNC(=O)OC(C)(C)C)CC3)c3ccccc3n2)cn1 [Example 11, tert-Butyl [(trans-4-{[({2-[6-(dimethylamino)pyridin-3-yl]quinolin-4-yl}carbonyl)-amino]methyl}cyclohexyl)methyl]carbamate] | 100 | 1220
18 | CC(=O)Nc1cccc2c(S(=O)(=O)NC[C@H]3CC[C@H](CNC(=O)OC(C)(C)C)CC3)cccc12 [Example 71, tert-Butyl {[trans-4-({[(5-acetamido-1-naphthyl)sulfonyl]amino}methyl)cyclohexyl]-methyl}carbamate] | 2450 | 16900
19 | CC(=O)Nc1ccc(S(=O)(=O)NC[C@H]2CC[C@H](CNC(=O)OC(C)(C)C)CC2)cc1 [Example 73, tert-Butyl {[trans-4-({[(4-acetamidophenyl)sulfonyl]amino}methyl)cyclohexyl]-methyl}carbamate] | 5030 | > 20000
20 | CC(C)(C)OC(=O)NC[C@H]1CC[C@H](CN(CC2CCOCC2)S(=O)(=O)c2ccc3ccccc3c2)CC1 [Example 82, tert-Butyl [(trans-4-{[(2-naphthylsulfonyl)(tetrahydro-2H-pyran-4-ylmethyl)amino]-methyl}cyclohexyl)methyl]carbamate] | 3170 | > 20000
21 | COCCOC(=O)NC[C@H]1CC[C@H](CNC(=O)c2cc(-c3ccncc3)nc3ccccc23)CC1 [Example 59, 2-Methoxyethyl {[trans-4-({[(2-pyridin-4-ylquinolin-4-yl)carbonyl]amino}-methyl)cyclohexyl]methyl}carbamate] | 4670 | > 20000
22 | CC(C)(C)OC(=O)NC[C@H]1CC[C@H](CNS(=O)(=O)c2ccc(Br)c(Br)c2)CC1 [Example 64, tert-Butyl {[trans-4-({[(3,4-dibromophenyl)sulfonyl]amino}methyl)cyclohexyl]-methyl}carbamate] | 3720 | > 20000
23 | CN(C)CCCOc1ccc(-c2cc(C(=O)NC[C@H]3CC[C@H](CNC(=O)OC(C)(C)C)CC3)c3ccccc3n2)cn1 [Example 10, tert-Butyl {[trans-4-({[(2-{6-[3-(dimethylamino)propoxy]pyridin-3-yl}quinolin-4-yl)carbonyl]amino}methyl)cyclohexyl]methyl}carbamate] | 40 | 300
24 | C[C@@H](CO)OC(=O)NC[C@H]1CC[C@H](CNC(=O)c2cc(-c3ccc(N4CCN(C)CC4)nc3)nc3ccccc23)CC1 [Example 133, (1S)-2-Hydroxy-1-methylethyl [(trans-4-{[({2-[6-(4-methylpiperazin-1-yl)pyridin-3-yl]quinolin-4-yl}carbonyl)amino]methyl}cyclohexyl)methyl]carbamate] | 660 | 2490
25 | Cc1cc(C(=O)NC[C@H]2CC[C@H](CNC(=O)OC(C)(C)C)CC2)cc(-c2ccccc2)n1 [Example 43, tert-Butyl [(trans-4-{[(2-methyl-6-phenylisonicotinoyl)amino]methyl}cyclohexyl)-methyl]carbamate] | 5820 | 8310
26 | CCOC(=O)NC[C@H]1CC[C@H](CNC(=O)c2cc(-c3cccc(C(N)=O)c3)nc3ccccc23)CC1 [Example 19, Ethyl ({trans-4-[({[2-(3-carbamoylphenyl)quinolin-4-yl]carbonyl}amino)methyl]-cyclohexyl}methyl)carbamate] | 780 | 1210
27 | CC(C)(C)OC(=O)NC[C@H]1CC[C@H](CNC(=O)c2cc(-c3ccc(N4CCOCC4)nc3)nc3ccccc23)CC1 [Example 145, tert-Butyl({trans-4-[({[2-(6-morpholin-4-ylpyridin-3-yl)-quinolin-4-yl]carbonyl}amino)-methyl]cyclohexyl}methyl)carbamate] | 60 | 280
28 | CC(C)(C)OC(=O)NC[C@H]1CC[C@H](CNC(=O)c2cc(-c3ccc(C(=O)O)cc3)nc3ccccc23)CC1 [Example 93, 4-(4-{[(trans-4-{[(tert-Butoxycarbonyl)amino]methyl}cyclohexyl)methyl]carbamoyl}-quinolin-2-yl)benzoic acid] | 170 | 1850
